Data taken from patent US20030060508A1, “Polyunsaturated fatty acid fractions of Nigella sativa L. seeds” (priority 2000, published 2003).

Columns and labels:
Corynebacterium pyogenes = test: Comparative antibacterial activity with ampicillin, bore method; format: cell-based; details: 1 μg/mL, read-out: Diameter of Zone of Inhibition
Description: (§1) […] The values are the average of three separate experiments. The anti-bacterial activity of the tested isolates was detected in vitro using the bore method. The nutrient agar medium containing one bacterial strain was poured into sterilized petri-dishes, each 20×120 mm, then left for 10 minutes to dry. Using the borer No. 5, a central bore was made in each plate, then another 4 were arranged it. The effect of different concentrations of the tested isolates on certain microorganisms was tested in 2 plates.
(§2) The comparative antibacterial activity of ampicillin and the Nigella sativa L. polyunsaturated fatty acid fraction against certain bacterial strains (Streptococcus pyogenes, Corynebacterium pyogenes and Salmonella typhi murium) was preformed in vitro using the bore method as described by Cooper and Woodman (1964) as previously described. The effect of ampicillin (1 μg/mL) and the Nigella sativa L. polyunsaturated fatty acid fraction (at 1 mg/ml) on the previously mentioned bacteria was tested.

Salmonella typhi murium = test: as above; format: cell-based; details: Salmonella enterica, read-out: Diameter of Zone of Inhibition
Description: as §1, §2

Streptococcus pyogenes = test: as above; format: cell-based; details: 1 μg/mL, read-out: Diameter of Zone of Inhibition
Description: as §1, §2

[1] = test system: writhing induced by parabenzoquinone; test: analgesic activity, writhing method; format: in vivo, mice; details: 5.0 mg/100 g.b.w.
Description: The analgesic activity of the Nigella sativa L. polyunsaturated fatty acid fraction was studied using the writhing method described by Okun et al. (1963). Thirty mature mice of both sexes weighing from 20 to 25 gm were divided into 3 groups of 10 mice each. The first group served as a control and the second group served as a standard (treated with paracetamol in a dose of 5 mg/100 gm body weight). The third group was injected subcutaneously with the Nigella sativa L. polyunsaturated fatty acid fraction. After 30 minutes, mice were injected intraperitoneally with 0.25 ml of a solution of parabenziquinone (0.2 mg/ml in saline). […] Animals devoid of writhing in each group were recorded and the analgesic potencies of paracetamol and the Nigella sativa L. polyunsaturated fatty acid fraction were determined as percent protection against writhing.

rat paw formalin edema = test: anti-inflammatory activity, rat paw formalin edema; format: in vivo, rats; details: 3 mg/100 g.b.w. intraperitoneally
Description: The anti-inflammatory activity of the Nigella sativa L. polyunsaturated fatty acid fraction was carried out in rats using a modification of rat paw formalin edema as described by Domemjoz et al. (1965).
Fifteen mature albino rats of both sexes weighing 150-200 gm were divided into 3 groups of 5 rats each. At the beginning of the experiment, the thickness of the rat left hind paw was measured using a Vernier caliper. Thereafter, rats of the first group were kept as a control and those of the second group (standard) were injected intraperitoneally with phenylbutazone in a dose of 3 mg/100 gm body weight. Rats of the third group were injected with the Nigella sativa L. polyunsaturated fatty acid fraction. After 30 minutes, inflammation was induced by subcutaneous injection of 0.1 mL of 6% solution of formalin in normal saline into the left hind paw.
The anti-inflammatory effect of the Nigella sativa L. polyunsaturated fatty acid fraction was estimated by comparing the magnitude of the paw swelling in the pretreated animals with that of the control animals. Measurement of rat paw thickness was carried out at hourly intervals for a period of 3 hours.

[2] = test system: histamine-induced bronchospasm in guinea pigs; test: protection from histamine-induced bronchospasm; format: in vivo; details: 239 mg/kg i.p.
Description: The anti-histamine effects of the Nigella sativa L. polyunsaturated fatty acid fraction on induced bronchospasm in guinea pigs was evaluated using the methods described by Armitage et al, Brit. J Pharmacol., 16:59-76 (1961). Willis, J. Pharm. Pharmacol., 21:126 (1969).
The prophylactic anti-allergic effects were evaluated in guinea pigs (300-400 grams). The animals were divided into 5 groups (10 animals each) and treated i.p. as follows: (1) animals treated with saline (control); (2) animals treated with diphenydramine (239 mg/kg/day); (3) animals treated with 50 mg/kg polyunsaturated fatty acid fraction; (4) animals treated with 100 mg/kg polyunsaturated fatty acid fraction; and (5) animals treated with 150 mg/kg polyunsaturated fatty acid fraction.
Animals were exposed 30 minutes after their i.p. injection of diphenydramine and polyunsaturated fatty acid fraction to histamine aerosol (1%) for 3 minutes. Bronchospasm and loss of rightening after 30, 60 and 90 minutes was calculated according to the following formula (Dawson and Sweatman, Br. J. Pharmacol., 71:387-398 (1980)): [formula]

[3] = test system: ova albumin inhalation in sensitized guinea pigs; test: time to onset of tachypnea in sensitized animals; format: in vivo; details: 50 microg/kg, treated for 21 days
Description: The second protocol involved sensitized animals. Animals were sensitized by injecting ova albumin in two doses 100 mg. each (S.C. and I.P., simultaneously). Animals were resensitized 15 days later. Guinea pigs were divided into three groups with 8 animals per group. The first group received a saline injection to serve as negative control. The second group received ketotifen which is the standard treatment to serve as positive control. The third group received 200 mg/kg each of Nigella sativa L. polyunsaturated fatty acid fraction. Animals in all groups were treated for 21 days following which they were exposed to ova albumin inhalation and time to onset of tachypnea was recorded as shown in the table below (*Statistically significant from the control group (P<0.05)).

[4] = test system: guinea pigs exposed to histamine aerosol (0.25%); test: prophylactic anti-asthmatic effect, preconvulsive time; format: in vivo; details: 5 microg/kg, treated for 21 days
Description: This example explains in vivo studies to evaluate the prophylactic (protective) anti-asthmatic effect of the Nigella sativa L. polyunsaturated fatty acid fraction. The prophylactic antiasthmatic effect was evaluated in vivo by measurement of the preconvulsive time in guinea pigs exposed to histamine aerosol (0.25%).
Guinea pigs were divided into three groups with 8 animals per group. The first group received a saline injection to serve as negative control. The second group received ketotifen, which is the standard treatment to serve as positive control. The third group received 200 mg/kg of the Nigella sativa L. polyunsaturated fatty acid fraction.
Animals in all groups were treated for 21 days, after which they were exposed to histamine (0.25%) aerosol and the preconvulsive time was recorded.

SMILES: CC1(C)S[C@@H]2[C@H](NC(=O)[C@H](N)c3ccccc3)C(=O)N2[C@H]1C(=O)O [Ampicillin, ampicillin]
- zone of inhibition at 1 µg/mL (Corynebacterium pyogenes): 44.7 ± 0.8 mm
- zone of inhibition at 1 µg/mL (Salmonella typhi murium): 13.1 ± 0.2 mm
- zone of inhibition at 1 µg/mL (Streptococcus pyogenes): 26.7 ± 0.3 mm

SMILES: CC(=O)Nc1ccc(O)cc1 [Paracetamol, paracetamol]
- % Protection, 120 minutes [1]: 20%
- % protection 30 minutes [1]: 100%
- % protection 60 minutes [1]: 60%
- % protection 90 minutes [1]: 40%

SMILES: CCCCC1C(=O)N(c2ccccc2)N(c2ccccc2)C1=O [Phenylbutazone, phenylbutazone]
- Rat Paw Thickness, 1 Hour (rat paw formalin edema): 5.85 ± 0.15 mm
- Rat Paw Thickness, 2 Hours (rat paw formalin edema): 5.71 ± 0.09 mm
- Rat Paw Thickness, 3 Hours (rat paw formalin edema): 5.82 ± 0.05 mm

SMILES: CN(C)CCOC(c1ccccc1)c1ccccc1 [diphenhydramine]
- % protection 30 minutes [2]: 100%
- % protection 60 minutes [2]: 100%
- % protection 90 minutes [2]: 90%

SMILES: CN1CCC(=C2c3ccccc3CC(=O)c3sccc32)CC1 [ketotifen]
- % of Prophylaxis [3]: 44.4%
- % of Prophylaxis (Protection) [4]: 82.85%
